Consider two molecules from paper PMC9841531, “Indole Derivatives as New Structural Class of Potent and Antiproliferative Inhibitors of Monocarboxylate Transporter 1 (MCT1; SLC16A1)” (Journal of Medicinal Chemistry, 2022).

The test system of one test is A-549 cancer cells. Kind of test: MTT-based cell viability assay, A-549. The note with it: Homo sapiens, A549, 72 h, read-out: A-549 cancer cell toxicity GI50 ± SEM. The text has this: MCT1-expressing cells have an extraordinary energy demand and rely on pyruvate metabolism, through either lactate conversion or pyruvate consumption. Inhibition of MCT1 blocks lactate and pyruvate influx into cancer cells, which prevents their processing in the TCA cycle. Over time, the viability of cells exposed to an MCT1 inhibitor is impaired due to pyruvate deprivation, which is compensated by upregulating glucose metabolism—leading to an overconsumption of glucose. To confirm the antiproliferative nature of the indole derivatives, we investigated the compounds toward the MCT1-expressing cell lines A-549[14],[15] and MCF-7.[16] Cancer cell viability was assessed via a 3-(4,5-dimethylthiazol-2-yl)-2,5-diphenyltetrazolium bromide (MTT) assay, as reported earlier.[43]
To determine the growth inhibitory potential of compounds 17–32, […] of each compound either at concentrations between 1 and 100 μM (A-549 or MCF-7) or at 10 and 50 μM (NIH/3T3) was pipetted into colorless flat-bottom 96-well microplates. Thereafter, 180 μL of a cell suspension (5000 cells/well) of either A-549, MCF-7, or NIH/3T3 cells was added and subsequently kept for 72 h at 37 °C under a 5% CO2-humidified atmosphere. The cell viability as well as the GI50 values were determined as described above.[43]

The subject of the next test is A-549 cells. Briefly: MTT-based cell viability assay with glucose supplementation. As to conditions: 25 and 50% of original glucose (4.5 g/L) every 12 h over 72 h. The protocol:
The glucose deprivation analyses were conducted by adding 4.5 μL of glucose (final concentrations 25% and 50% of the original 4.5 g/L) to each well at an interval of 12 h over a period of 72 h to the 180 μL cell suspension of A-549 cells in a colorless flat-bottom 96-well microplate (SPL Life Sciences, Gyeonggi-do, Republic of Korea). Cell viability was determined as described above.

Test [1] has as its system ABCB1-expressing A2780/ADR cells. Briefly: MTT-based efficacy (MDR-reversal) assay, 33 in combination with test compound, A2780/ADR. It is filed as cell-based. As to conditions: for sensitization of ABCB1-expressing A2780/ADR cells against 33: 5 μM; for EC50: from resistance factors of 33 (A2780/ADR vs A2780) against compound concentration, read-out: half-maximal reversal concentration (EC50). Here is the method:
This sensitization is indicated by a shift of the concentration-effect curve of compound 33 from the right (=high concentrations of 33 needed to induce A2780/ADR cell death) to the left (=lower concentrations of 33 needed to induce A2780/ADR cell death). The concentration-effect curve of compound 33 in combination with 5 μM of either compound 24 or 30 resembles the concentration-effect curve of the sensitive cell line A2780. […] Thus, their potentiating effect with respect to the antiproliferative agent 33 against ABCB1-expressing A2780/ADR cells is due to the inhibition of ABCB1. Therefore, compounds 24 and 30 were dually effective against MCT1- and ABCB1-expressing cells (Table 5).
An MDR-reversal assay[2],[55]−[59] was used to investigate the ability to reverse ABCB1-mediated MDR in A2780/ADR cells toward the cytotoxic ABCB1 substrate 33. […] A dilution series of 33 at concentrations between 0.1 μM and 100 μM was generated, and 20 μL of each concentration was transferred onto the plates (final concentration: 0.01–10 μM). The plates were incubated for 72 h at 37 °C and a 5% CO2-humidified atmosphere, before subsequent processing with the regular MTT assay as described above. The observed effects of compounds 24 and 30 were compared to the effect of 33 alone on A2780/ADR cells as well as its sensitive counterpart A2780 (∼10,000 cells/well).

Another test deals with ABCC1 (Homo sapiens, UniProt P33527). Kind of test: daunorubicin assay, ABCC1-expressing H69AR cells. The note with it: screening at 10 μM, inhibitor if 20% (+SEM) reached.
Chain of ABCC1 (P33527 whole entry): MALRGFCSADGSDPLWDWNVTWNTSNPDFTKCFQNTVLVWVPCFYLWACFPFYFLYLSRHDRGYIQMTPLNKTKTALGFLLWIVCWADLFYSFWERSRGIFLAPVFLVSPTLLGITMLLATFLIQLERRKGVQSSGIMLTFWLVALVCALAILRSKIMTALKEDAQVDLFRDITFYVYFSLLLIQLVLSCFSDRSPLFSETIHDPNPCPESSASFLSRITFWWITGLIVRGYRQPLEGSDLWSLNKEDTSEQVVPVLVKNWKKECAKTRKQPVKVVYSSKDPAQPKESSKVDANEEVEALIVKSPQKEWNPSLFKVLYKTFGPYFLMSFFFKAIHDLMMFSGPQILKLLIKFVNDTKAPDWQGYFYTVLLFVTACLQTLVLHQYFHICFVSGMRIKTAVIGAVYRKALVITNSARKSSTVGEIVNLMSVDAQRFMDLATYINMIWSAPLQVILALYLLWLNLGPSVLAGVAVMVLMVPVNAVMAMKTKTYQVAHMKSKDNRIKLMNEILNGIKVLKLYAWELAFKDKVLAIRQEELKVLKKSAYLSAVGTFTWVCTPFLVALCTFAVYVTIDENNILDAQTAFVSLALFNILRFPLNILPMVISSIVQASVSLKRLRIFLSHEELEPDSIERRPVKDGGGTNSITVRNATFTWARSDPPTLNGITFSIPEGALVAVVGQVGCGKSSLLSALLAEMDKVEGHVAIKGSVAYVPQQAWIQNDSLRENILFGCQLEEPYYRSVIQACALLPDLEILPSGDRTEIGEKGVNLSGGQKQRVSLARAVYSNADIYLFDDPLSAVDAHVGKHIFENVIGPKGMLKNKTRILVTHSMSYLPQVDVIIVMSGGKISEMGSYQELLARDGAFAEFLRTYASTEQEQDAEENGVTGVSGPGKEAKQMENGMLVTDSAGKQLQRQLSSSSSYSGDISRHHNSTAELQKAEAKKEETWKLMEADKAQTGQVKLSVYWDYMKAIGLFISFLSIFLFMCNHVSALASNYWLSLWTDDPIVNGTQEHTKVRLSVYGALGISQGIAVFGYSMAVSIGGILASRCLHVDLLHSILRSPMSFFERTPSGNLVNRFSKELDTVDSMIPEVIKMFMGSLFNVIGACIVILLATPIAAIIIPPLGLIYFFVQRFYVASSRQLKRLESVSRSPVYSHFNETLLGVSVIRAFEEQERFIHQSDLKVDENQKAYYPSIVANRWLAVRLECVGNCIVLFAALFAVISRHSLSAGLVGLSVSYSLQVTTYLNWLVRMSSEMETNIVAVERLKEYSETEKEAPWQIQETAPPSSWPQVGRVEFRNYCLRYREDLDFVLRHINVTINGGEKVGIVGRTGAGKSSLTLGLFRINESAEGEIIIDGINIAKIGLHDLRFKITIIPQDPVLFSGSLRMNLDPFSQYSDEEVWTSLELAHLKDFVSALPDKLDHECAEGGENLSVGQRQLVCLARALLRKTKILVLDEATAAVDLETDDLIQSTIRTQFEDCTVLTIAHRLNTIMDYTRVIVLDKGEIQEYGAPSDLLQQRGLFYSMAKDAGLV

Description for ABCC1: To provide a detailed picture of the pharmacological profile of the indole derivatives, we investigated their modulatory nature on the most prominent ABC transporters ABCB1 (P-glycoprotein, P-gp), ABCC1, (multidrug resistance-associated protein 1, MRP1), and ABCG2 (breast cancer resistance protein, BCRP). Here, we conducted calcein AM (ABCB1),[2],[52]−[59] daunorubicin (ABCC1),[52],[58]−[60] and pheophorbide A (ABCG2)[2],[52]−[60] assays using ABCB1-expressing A2780/ADR, ABCC1-expressing H69AR, and ABCG2-expressing MDCK II BCRP cells, respectively.
The calcein AM (ABCB1),[2],[52]−[59] daunorubicin (ABCB1[52],[60] and ABCC1[52],[58]−[60]), and pheophorbide A (ABCG2)[2],[52]−[60] assays were conducted as reported earlier. […] The data was processed using GraphPad Prism version 8.4.0, and IC50 values were determined, applying three- or four-parameter logistic equations, whatever was statistically preferred.

Broadly, the GI50 is the concentration giving 50% growth inhibition. With `COC(=O)/C(C#N)=C/c1cn(CC(=O)Nc2ccc(C)cn2)c2ccccc12` [Compound 30, Methyl-2-cyano-3-(1-(2-((5-methylpyridin-2-yl)amino)-2-oxoethyl)-1H-indol-3-yl) Acrylate], the concentration for 50% growth inhibition (GI50) with A-549 cancer cells was found to be 19.3 ± 0.3 µM. Moreover, the “effect of glucose supplementation on cell toxicity” value in the test with A-549 cells is “supplementation of glucose prevents cell toxicity”. Also, in test [1], the “sensitization of ABCB1-expressing A2780/ADR cells against 33” value is recorded as “completely sensitized” and the EC50 was found to be 1.22 ± 0.01 µM. Further, at ABCC1, the ABCC1 inhibition result is given as “X (Compounds were considered as inhibitors if they reached 20% (+SEM) inhibition compared to the reference inhibitors 33–35; X = fulfilled)”.
The corresponding values for `COC(=O)/C(C#N)=C/c1cn(CC(=O)Nc2ccc(OC)cc2)c2ccccc12` [Compound 24, Methyl-2-cyano-3-(1-(2-((4-methoxyphenyl)amino)-2-oxoethyl)-1H-indol-3-yl) Acrylate] are 20 ± 0.6 µM, “supplementation of glucose prevents cell toxicity”, “completely sensitized”, 0.793 ± 0.039 µM and “X (Compounds were considered as inhibitors if they reached 20% (+SEM) inhibition compared to the reference inhibitors 33–35; X = fulfilled)”.
